Tests used:
MMP-2 = biological target: T1, MMP-2 (Homo sapiens, UniProt P08253); experiment: Assay for inhibitory activity against MMP-2; type: biochemical
T1 construct: purchased Yagai (Yamagata pref., Japan)
T1 sequence (P08253 110-660): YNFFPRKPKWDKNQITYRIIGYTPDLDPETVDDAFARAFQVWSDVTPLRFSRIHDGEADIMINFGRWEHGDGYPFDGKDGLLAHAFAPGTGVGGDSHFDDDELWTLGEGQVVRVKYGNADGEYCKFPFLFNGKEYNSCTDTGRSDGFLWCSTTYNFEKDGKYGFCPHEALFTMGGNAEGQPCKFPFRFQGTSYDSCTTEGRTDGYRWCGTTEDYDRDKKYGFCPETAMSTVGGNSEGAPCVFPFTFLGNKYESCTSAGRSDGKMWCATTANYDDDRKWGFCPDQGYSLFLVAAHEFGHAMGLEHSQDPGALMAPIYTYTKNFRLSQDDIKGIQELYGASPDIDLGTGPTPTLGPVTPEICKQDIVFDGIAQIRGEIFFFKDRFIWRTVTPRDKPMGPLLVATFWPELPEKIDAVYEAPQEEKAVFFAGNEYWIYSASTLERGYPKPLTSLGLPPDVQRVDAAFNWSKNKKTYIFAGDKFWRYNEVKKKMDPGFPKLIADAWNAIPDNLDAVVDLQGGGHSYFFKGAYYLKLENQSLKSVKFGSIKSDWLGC
Procedure: (§1) Assay for Inhibitory Activities of MMP-9 and MMP-2
(§2) The enzymatic activity was analyzed on the method described by Knight, C. G., et al. (C. Graham Knight., Frances Willenbrock and Gillian Murphy: A novel coumarin-labelled peptide for sensitive continuous assays of the matrix metalloproteinases. FEBS Lett., 296 (1992) 263-266).
MMP-2 was purchased from Yagai (Yamagata pref., Japan).
(§3) MOCAc-Pro-Leu-Gly-Leu-A2pr(Dnp)-Ala-Arg-NH2 as a substrate was purchased from Petide Institute(Osaka pref., Japan). This substrate was dissolved in DMSO at a concentration of 1 mM.
(§4) Reaction buffer consists of 50 mM Tris-HCl buffer (pH 7.5) containing 10 mM CaCl2, 0.3 M NaCl, 0.005% Brij35 and 0.01% NaN3.
Assay Method of Inhibitory Activity Against MMP-2:
(§5) 1.0 μl of a tested compound in DMSO is added to 48.0 μl of a reaction buffer containing 0.05 μl of an enzyme solution. After standing for 60 minutes at room temperature, the reaction was started by adding 1.0 μl of a substrate solution. After incubation for 60 minutes at room temperature, 100 μl of 3% (v/v) AcOH for reaction stopping and measured a fluorescence with excitation and emission at 320 nm and 405 nm, respectively (Spectrophotofluorometer; Fluoroscan Ascent (Labsystem)).
(§6) The measurement of the inhibitory activities (IC50) was carried out in a following four methods;
(§7) A) Reaction with substrate, enzyme and inhibitor
(§8) B) Reaction with substrate and inhibitor, without enzyme
(§9) C) Reaction with substrate and enzyme, without inhibitor
(§10) D) Reaction with substrate only
(§11) IC50 values were calculated by using a following formula and each fluorescence values of above four methods (A to D).
(§12) % inhibition={1−(A−B)/(C−D)}×100
(§13) IC50 means the concentration required to inhibit 50% of the enzyme activity.

MMP-9 = biological target: T2, MMP-9 (Homo sapiens, UniProt P14780); experiment: Assay for inhibitory activity against MMP-9; type: biochemical
T2 construct: made in house; host or cells: HT1080 human fibrosarcoma cells; endogenous protein secreted after TPA treatment and purified from conditioned medium
T2 sequence (P14780 107-707 limits assumed): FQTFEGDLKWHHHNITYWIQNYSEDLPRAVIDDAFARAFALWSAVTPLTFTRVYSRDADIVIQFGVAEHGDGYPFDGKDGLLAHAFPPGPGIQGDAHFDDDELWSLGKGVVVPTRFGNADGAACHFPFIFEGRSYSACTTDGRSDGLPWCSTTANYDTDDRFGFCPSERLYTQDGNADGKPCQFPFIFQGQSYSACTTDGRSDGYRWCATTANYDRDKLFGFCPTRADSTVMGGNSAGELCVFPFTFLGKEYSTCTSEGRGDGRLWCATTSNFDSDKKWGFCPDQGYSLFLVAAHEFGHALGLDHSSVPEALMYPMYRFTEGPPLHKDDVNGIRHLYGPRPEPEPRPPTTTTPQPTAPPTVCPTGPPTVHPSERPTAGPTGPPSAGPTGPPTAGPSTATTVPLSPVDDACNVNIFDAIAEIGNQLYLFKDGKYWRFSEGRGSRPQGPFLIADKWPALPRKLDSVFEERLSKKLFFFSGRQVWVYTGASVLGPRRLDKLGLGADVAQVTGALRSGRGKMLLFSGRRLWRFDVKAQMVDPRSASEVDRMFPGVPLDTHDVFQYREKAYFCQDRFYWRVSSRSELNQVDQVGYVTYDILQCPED
Procedure: as §1, §2
MMP-9 was purified by using a combination of procedures described in previous reports as follows. Yasunori Okada, Yukio Gonoji, Katsumi Naka, Katsuro Tomita, Isao Nakanishi, Kazushi Iwata and Taro Hayakawa: Matrix metalloproteinase 9 (92-kDa gelatinase/type IV collagenase) from HT1080 human fibrosarcoma cells. Purification and activation of the precursor and enzymic properties. J. Biol. Chem., 267 (1992) 21712-21719. Yasunori Okada, Tatsuhisa Morodomi, Jan J, Enghild, Ko Suzuki, Atsushi Yasui, Isao Nakanishi, Guy Salvesen and Hideaki Nagase: Matrix metalloproteinase 2 from human rheumatoid synovial fibroblasts. Purification and activation of the precursor and enzymic properties. Eur. J. Biochem. 194 (1990) 721-730. Robin V Ward, Rosalind M Hembry, John J Reynolds and Gillian Murphy: The purification of tissue inhibitor of metalloproteinase-2 from its 72 kDa progelatinase complex. Biochem. J. 278 (1991) 179-187.
Briefly, human fibrosarcoma ATCC HT1080 cell line was cultured to confluent in Dulbecco's Modified Medium (DMEM) containing 10% fetal-calf serum at 37° C. for 48 hours. Subsequently, the medium of confluent culture was changed to serum-free DMEM medium. To obtain MMP-9, Phorbol-12-myristate-13-acetate (TPA) must be added to this serum-free DMEM medium at a concentration of 50 ng/ml. The TPA treated medium was centrifuged at 3000 rpm for 15 min and the supernatant was concentrated to 450 ml by a Toyo-Roshi UP-20 apparatus with an ultrafiltration membrane. Then, proMMP-9 in this concentrated solution was purified by using columns of Gelatin-Sepharose and Concanavalin A-Sepharose. The pool containing proMMP-9 was dialyzed, concentrated (Toyo-Roshi UP-20) and applied to columns of Sephacryl S-200 and Green A matrix for the separation from TIMPs. The obtained proMMP-9 fraction was activated by TPCK-Trypsin (final conc. […] reaction mix.) for the assay.
as §3, §4
Assay Method of Inhibitory Activity Against MMP-9:
as §5, with “0.08” for “0.05”
as §6, §7, §8, §9, §10, §11, §12, §13

[1] = system: E30 monoclonal antibody-induced glomerulonephritis in Slc-Wistar rats; experiment: Urinary protein excretion in E30 monoclonal antibody-induced glomerulonephritis rats; type: in vivo, rat; conditions: urinary protein excretion on day 2 after E30 injection, compound-treated vs vehicle-treated group, oral, 100 mg once a day, first dose 2 hours before E30
Procedure: Five to eight weeks old male Slc-Wistar rats were used in the experiment.
In order to induce glomerulonephritis, E30 of 20 to 500 μg, preferably 50 to 200 μg, is intravenously injected to rats of five to eight weeks old. Test compounds of 0.1 to 500 mg, preferably 1 to 200 mg, are suspended with 3 to 10%, preferably 4 to 6%, gum arabic solution and the like, and are orally given 1 to 5 hours, preferably 1.5 to 3 hours, prior to E30 injection. Constant amount of test compounds are then consecutively given 1 to 3 times a day. Evaluation of test compounds are determined by the amount of urinary protein excretion 2 days after E30 injection when proteinuria reaches to the maximum level.
Determination of the amount of urinary protein excretion is performed by the collection of 24-hour urine samples with stainless metabolic cages followed by the measurement of the concentration of urinary protein. Blood samples obtained at the follow-up period are processed for the determination of blood urea nitrogen and plasma creatinine, which indicate renal function. As a marker of damaged renal tubules, urinary amounts of N-acetyl-D-glycosaminidase excretion is measured. Furthermore, to study the inhibitory effects of compounds on mesangial proliferation following E30 injection, the number of PCNA (proliferating cell nuclear antigen) positive cells per single glomerulus is counted. Morphological changes are observed with light and electron microscopy.
5-week-old male Slc-Wistar rats were reared under the conditions of room temperature of 25° C., 40-60% humidity and 12 hour cycles of light and darkness and fed on solid chow (CA-1, Clea Japan) and tap water ad libitum. After one week's preliminary rearing, each rat was housed in a stainless metabolic cage for acclimation for one week, and was used for experiment at 7 weeks of old (body weight: 150-180 g). E30 monoclonal antibody (J.J.N., vol. 36, p106, 1994) was diluted with saline at 100 μg/0.4 ml and was administered from tail vein at the volume of 0.4 ml/body. Compound (2) was suspended with 5% gum arabic solution and was given at the dose of 100 mg 2 hours before E30 injection. Subsequently, compound (2) of 100 mg was orally administered once a day from the next day. The rats were housed in stainless metabolic cages just after the administration of test compound, and then 24-hour urine samples were collected. After measuring the volume, the urine was centrifuged at 3000 rpm for 10 min at room temperature. […] Urinary protein was determined by pyrogallole red method (Micro TP-test Wako, Wako Zyunyaku). The amount of urinary protein excretion on day 2 in compound-treated group was compared with that in vehicle-treated one, and inhibitory ratio of urinary protein excretion was calculated. […]

## C[C@@H](NS(=O)(=O)c1ccc(-n2nnc(-c3ccc(F)cc3)n2)cc1)C(=O)O [Compound 114]
MMP-2
  IC50: 27.8 nM
MMP-9
  IC50: 316 nM
[1]
  Inhibitory rate (%) of urinary protein excretion: 2.7%
other
  melting point: 194 to 195 °C

## Cc1ccc(-n2nnc(-c3ccc(S(=O)(=O)N[C@H](Cc4ccccc4)C(=O)O)s3)n2)cc1 [Compound 95]
MMP-2
  IC50: 10.7 nM
MMP-9
  IC50: 19 nM
[1]
  Inhibitory rate (%) of urinary protein excretion: 21%
other
  melting point: 166 to 169 °C
